PubChem BioAssay (NCI)
Where “and” joins values, the source holds several entries; their conditions need not be identical. Equal entries are not always repeated.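 The compound was tested at five concentrations on cells cultured in 96-well plates, with a 48-hour exposure period. Abbreviation: GI50, concentration required for 50% inhibition of growth. TGI: concentration producing complete growth inhibition.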

What was measured:
Assay in all cases: inhibition of tumour cell growth, NCI panel, 48 h
HCT-116 colon = tested on: HCT-116 colon
HL-60(TB) leukemia = tested on: HL-60(TB) leukemia
IGROV1 ovarian = tested on: IGROV1 ovarian
KM12 colon = tested on: KM12 colon
NCI/ADR-RES ovarian = tested on: NCI/ADR-RES ovarian
RXF 393 renal = tested on: RXF 393 renal
SF-539 CNS = tested on: SF-539 CNS
SK-MEL-5 melanoma = tested on: SK-MEL-5 melanoma
SNB-75 CNS = tested on: SNB-75 CNS
TK-10 renal = tested on: TK-10 renal

SMILES	GI50 (HCT-116 colon)	TGI (HCT-116 colon) [µM]	GI50 (HL-60(TB) leukemia) [µM]	TGI (HL-60(TB) leukemia) [µM]	GI50 (IGROV1 ovarian)	TGI (IGROV1 ovarian) [µM]	GI50 (KM12 colon) [µM]	TGI (KM12 colon) [µM]	GI50 (NCI/ADR-RES ovarian)	TGI (NCI/ADR-RES ovarian) [µM]	GI50 (RXF 393 renal)	TGI (RXF 393 renal)	GI50 (SF-539 CNS)	TGI (SF-539 CNS)	GI50 (SK-MEL-5 melanoma)	TGI (SK-MEL-5 melanoma) [µM]	GI50 (SNB-75 CNS)	TGI (SNB-75 CNS)	GI50 (TK-10 renal)	TGI (TK-10 renal)
CCc1cccc(C)c1NC(=O)c1sc2nc3c(cc2c1N)CCCCC3	3.58 µM	> 100	2.85	11.8	5.13 µM	> 100	3.46	> 100	2.36 µM	14.1	1.6 µM	6.4 µM	2.29 µM	8.21 µM	2.97 µM	13.8	1.79 µM	51.5 µM	13.4 µM	> 100 µM
COc1cc(-c2cc3ncccc3c3nc(N)c4cccnc4c23)cc(OC)c1OC			0.217	0.717	1.56 µM	> 100	0.36	33.4	0.492 µM	23.4	0.742 µM	6.48 µM	0.361 µM	2.6 µM	0.296 µM	1.99			1.15 µM	9.29 µM
C=C1C(=O)O[C@H]2C[C@@H]1CC/C(C)=C/CC/C(C)=C/CC[C@H]2C	7.82 µM	21.3	7.14	16.2	18.8 µM	40	18.1	44.4	7.43 µM	21.5	9.67 µM	27.7 µM	15.7 µM	33.6 µM	17.3 µM	32.2	19.4 µM	35.2 µM	20 µM	37.7 µM
O=C(CO[N+](=O)[O-])Nc1ccc(C(=O)/C=C/c2ccc(Cl)cc2)cc1	0.298 µM	1.09	3.59	> 100	13.4 µM	30	1.54	3.1	3.87 µM	> 100	4.82 µM	17.8 µM	2.52 µM	8.81 µM	4.23 µM	15.3	3.19 µM	17.6 µM	8.37 µM	25.1 µM
CCN(Cc1cccc(F)c1)c1ccc(CO)c(Cl)c1	0.0674 µM	5.85	19.6	> 69.8	0.0779 µM	1.15	22.1	> 68.7	15.9 µM	53.6	5.28 µM	27.8 µM	23.8 µM	63.5 µM	3.86 µM	20.4	12 µM	54 µM		
FC(F)(F)c1nc2nc(Cl)c(Cl)nc2n1CCCN1CCOCC1		> 100		40.3		> 100		> 100		> 100		68.1 µM		> 100 µM		> 100		> 100 µM		> 100 µM
COc1ccc(S(=O)(=O)N2CC(C)(C)CN(S(=O)(=O)c3ccc(OC)cc3)C2C(=O)NO)cc1	> 20 µM	> 20	> 10.6	> 20	> 20 µM	> 20	> 20	> 20	> 20 µM	> 20	> 14.2 µM	> 20 µM	> 20 µM	> 20 µM		> 7.63	> 20 µM	> 20 µM	19.5 µM	> 20 µM
CN[C@H]1C=C[C@@H]2/C=C(C)/C=C/[C@@H](C)[C@H]([C@H](C)[C@H](O)[C@@H](C)NC(C)=O)OC(=O)/C=C/C=C(C)\C=C\[C@]2(C)C1	< 0.001 µM and 0.0049 µM	40.4	0.0332	35.7	0.0049 µM	> 49	0.00963	> 49	0.44 µM and 0.347 µM	> 49	< 0.001 µM and 0.00674 µM	28.7 µM	< 0.001 µM and 0.0049 µM	12.8 µM	0.0049 µM	0.552	0.0049 µM	6.08 µM	0.0611 µM and 0.259 µM	> 49 µM
O=C(CC(c1ccccc1)c1c(O)c2ccccc2oc1=O)c1ccccc1 (centres undefined)		> 100		> 100		> 100		> 100		> 100		> 100 µM		> 100 µM		> 100		> 100 µM		> 100 µM
CN(C)CCCOc1ccc(-c2ccc3ncc4c(c3c2)n(C2CCOCC2)c(=O)n4C)cn1	3.12 µM	16.6	2.48	15.9	0.454 µM	5.6	3.16	16.4	3.86 µM	21.9	0.838 µM	4.85 µM	1.52 µM	6.21 µM	1.48 µM	7.47	0.396 µM	6.45 µM	0.286 µM	2.91 µM
CC[N+](CC)=c1sc2c(s1)C(c1ccc(Cl)cc1)Oc1ccc(Cl)cc1-2 (centres undefined)	0.568 µM	1.89	2.22	5.98	1.6 µM	10.7	0.456	1.91	21.6 µM	67.2	2.26 µM	4.86 µM	1.46 µM	2.97 µM	1.22 µM	2.53	0.783 µM	10.6 µM	3.38 µM	6.61 µM
S=C(Nc1ccc(Br)cc1)Nc1ccc(Br)cc1	4.21 µM	> 100	5.79	> 100	7.41 µM	> 100	3.63	> 100	4.32 µM	> 100	> 100 µM	> 100 µM	> 100 µM	> 100 µM	5.4 µM	> 100	98.7 µM	> 100 µM	5.38 µM	> 100 µM
CCCC(=O)NC1=C(Cl)C(=O)c2ccccc2C1=O		4.52		0.899		17.9		15.2		> 23.2		6.08 µM		7.33 µM		6.85		20.2 µM		15.6 µM
Cc1ccc(S(=O)(=O)NC(=O)C2C(=O)CC3(CCCCC3)CC2=O)cc1		74.4		65.8		71.1		50		37.9		> 100 µM		77.5 µM		67		> 100 µM		62.1 µM
CCC[CH2][Sn]([CH2]CCC)([CH2]CCC)[O]c1ccc(Cl)cc1Cl	0.0952 µM	0.231	0.129	0.415	0.083 µM	0.223	0.0939	0.244	0.141 µM	0.312	0.142 µM	0.296 µM	0.179 µM	0.372 µM	0.138 µM	0.27	0.152 µM	0.445 µM	0.215 µM	0.61 µM
C=C(C)C(=O)O[C@H]1C[C@@]23O[C@@H]2CCC(=C[C@H]2OC(=O)C(=C)[C@H]12)COC3O (some centres undefined)		37.5		48.3		> 100		> 100		> 100		89.6 µM		> 100 µM		> 100		> 100 µM		> 100 µM
[Cl][Hg][Cl]	18 µM	33.4	3.24	10.1	8.2 µM	24.8	16.8	31.6	28.5 µM	79.6	18.2 µM	32.6 µM	18.3 µM	33.5 µM	15.4 µM	30.5	18 µM	34.8 µM	17.5 µM	31.5 µM
O=C(CP(=O)(O)O)NC(CC(=O)OCc1ccccc1)C(=O)OCc1ccccc1 (centres undefined)		> 100		> 100		> 100				> 100		> 100 µM		> 100 µM		> 100		> 100 µM		
COC(=O)CCc1c[nH]c2ccc(N(CCCl)CCCl)cc12	2.18 µM	> 58.9	0.429	> 100	6.45 µM	> 57.7	10.6	36.1	2.3 µM	> 56.8	1.64 µM	4.19 µM	0.486 µM	4.69 µM	2.39 µM	14.8	1.04 µM	11.6 µM	4.82 µM	66 µM
Cc1nn(-c2nc3ccccc3[nH]2)c(N)c1-c1ccc(Cl)cc1	4.37 µM	> 100	4.31	25.1	7.75 µM	> 100	4.39	> 100	4.84 µM	> 100	4.26 µM	46.4 µM	5.89 µM	> 100 µM	4.08 µM	> 100			4.51 µM	> 100 µM
CC(=O)OCC1OC(n2c(-c3ccc(Cl)cc3)ccc(C#N)c2=S)C(OC(C)=O)C(OC(C)=O)C1OC(C)=O (centres undefined)		> 100		> 100	44.3 µM and > 100 µM	> 100		> 100		> 100		36.3 µM and 74.5 µM		99 µM and > 100 µM	> 66.1 µM and 32.2 µM	> 100	5.05 µM and 26.9 µM	14 µM and 82.9 µM	29.4 µM and 62.3 µM	64.1 µM and > 100 µM
COc1ccc(-c2cc(=O)c3ccc(C)nc3[nH]2)cc1	> 100 µM	> 100	> 100	> 100		> 100		> 100		> 100		> 100 µM		> 100 µM	48 µM	> 100				> 100 µM
CCOc1ccc2nc(SCc3nc4n(n3)S(=O)(=O)c3ccccc3N4C)sc2c1	55.8 µM	> 100	82.7	> 100	> 100 µM	> 100			> 100 µM	> 100	30.1 µM	97.3 µM	53.8 µM	> 100 µM	> 100 µM	> 100	28.8 µM	83.8 µM		
C=C1C(=O)O[C@H]2[C@H]1CC/C(COC(=O)CSCCSCC(=O)OC/C1=C/CC[C@@]3(C)O[C@H]3[C@H]3OC(=O)C(=C)[C@@H]3CC1)=C\CC[C@@]1(C)O[C@@H]21	1.17 µM	2.64			2.35 µM	5.6	2.08	4.06	3.61 µM	16.7	1.55 µM	3.03 µM	1.55 µM	3.12 µM	1.88 µM	3.72			1.84 µM	3.29 µM
C=C1C(O)C2C(=C(CCc3ccccc3)C13CC3)C(=O)C(C)(CO)C2O (centres undefined)			81.9	> 100	> 100 µM	> 100	> 100	> 100	> 100 µM	> 100	> 100 µM	> 100 µM	> 100 µM	> 100 µM	> 100 µM	> 100	> 100 µM	> 100 µM	57.4 µM	> 100 µM
Cc1cc(=O)oc2cc(OC(=O)N(C)C)c(Cl)cc12		> 100		> 100		> 100		> 100		> 100		41.5 µM		> 100 µM		> 100				> 100 µM
COc1cc(NC(N)=NCCC(C)(C)Oc2ccc(C(F)(F)F)cc2)ncc1C#N	1.46 µM	2.83			1.8 µM	3.48	1.68	3.17	1.66 µM	3.24	1.68 µM	3.11 µM	1.8 µM	3.26 µM	1.58 µM	2.93	1.55 µM	3.02 µM	1.54 µM	2.91 µM
Cc1ccc(-c2csc(/N=C3\C(=O)Nc4ccccc43)n2)cc1	1.35 µM	2.79			1.53 µM	4.55	1.86	4.51	20.7 µM	> 100	1.49 µM	3.16 µM	1.71 µM	3.45 µM	1.63 µM	3.02	1.17 µM	2.85 µM	2.52 µM	5.15 µM
Oc1[nH]c2ccccc2c1N=Nc1ccccn1		25.2		86.5		90.7		97.8		28		> 100 µM				> 100		86.6 µM		53.7 µM
